Values belong to the compound of their own block, whether it stands above or below them.
Columns and labels:
[1] = test system: Chromobacterium violaceum; assay: Antibiotic susceptibility testing (MIC, VITEK 2 microdilution); format: cell-based; conditions: C. violaceum isolate from influent of urban sewage water
Method: To determine antibiotic susceptibility of Chromobacterium violaceum and the 32 E. coli isolates, each isolate was subjected to antibiotic susceptibility testing [VITEK 2™ Biomerieux, USA] using microdilution and photometric determination of growth at the Colorado State University Veterinary Diagnostic Laboratory located in Fort Collins, Colo., US. […] The antibiotics that were tested against C. violaceum included amikacin, amoxicillin-clavulanate, ampicillin, cefazolin, cefpodoxime, ceftazidime, cephalothin, imipenem, ticarcillin, and ticarcillin-clavulanate. Antibiotics tested against each E. coli isolate included amoxicillin, ampicillin, cefalexin, cefovecin, cefpodoxime, ceftiofur, piperacillin, ceftazidime, cefotaxime, and imipenem.

[2] = test system: C. violaceum's β-lactamase; assay: Paper-based test on intact bacterial isolates; format: cell-based, Chromobacterium violaceum; conditions: intact bacteria, 0.5 mM nitrocefin, 2 hr
Method: Bacterial isolates were obtained from grab samples in the field, except for influent. Field samples include influent, effluent, surface water from a river and sewage samples from city sewers. All samples were plated by pipetting 50-100 μL on various clinical agars [CHROMagar™ Orientation, CHROMagar™ ESBL, and CHROMagar™ KPC]. Bacterial isolates were purified by selecting a single colony with an inoculating loop and spreading the colony on the same kind of agar the colony was selected from, or was spread onto a MacConkey agar plate [Difco]. To remove potential inhibitors before any testing, they were further subcultured onto non selective agar [Tryptic Soy Agar, Thermo Scientific™ Remel™] and then grown in a nutrient broth [Tryptic Soy Broth, Thermo Scientific™ Remel™, Soybean Casein Digest] at 37° C. and 2% CO2. After replenishing the nutrient broth, all bacteria isolates were grown using a shaker for 12-18 hr depending on bacteria growth rate. They were also re-plated on ESBL plates to confirm resistance mechanisms. The isolates were given to the tester blind for accurate, unbiased results. Bacteria were not lysed before reacting 20 μL of bacteria solution with 20 μL of 0.5 mM nitrocefin. Images were obtained after 2 hr of reaction.

[3] = format: physicochemical
β-lactamase = conditions: on paper, ~22° C., 1 U/mL β-lactamase, Lineweaver-Burk plot
Method: Nitrocefin [VWR International], a chromogenic cephalosporin, was used for detection of β-lactamase because of the distinct color change from yellow to red in the presence of the enzyme, making it a user-friendly platform. […] Aliquots of 9.68 mM nitrocefin was frozen at −20° C. in amber microcentrifuge tubes [VWR International]. These tubes were used to minimize degradation from UV exposure. Aliquots were taken out and allowed to thaw and warm to room temperature. Nitrocefin was further diluted with pH 7.4 phosphate buffered saline (PBS) [1.37 M NaCl, 0.027 M of KCl, 0.1 M Na2HPO4, and 0.018 M KH2PO4] to a concentration of 0.5 mM for each experiment (except for nitrocefin concentration optimization where 0.5 mM was selected). During pH optimization experiments, nitrocefin was diluted in pH buffers ranging from pH 6 to pH 9. Recombinant β-lactamase was purchased at a concentration of 1,500 U/mg [Abcam] and was initially dissolved in dH2O and aliquoted and frozen. […]
In order to quantify the concentration of nitrocefin that was hydrolyzed every minute, a calibration curve was generated by quantifying the red product after the reaction had completed, and plotting green light intensity vs. product concentration. […] The calculated Vmax and Km values were carried out in the Michaelis-Menten equation to obtain a theoretical kinetic curve to compare to data points.

[4] = test system: Chromobacterium violaceum; assay: Growth on ampicillin-containing agar plate; format: cell-based; conditions: C. violaceum isolate

- resistance/susceptibility of isolate (MIC interpreted per CLSI) [1]: susceptible
Compound: CC1(C)S[C@@H]2[C@H](NC(=O)[C@H](N)c3ccc(O)cc3)C(=O)N2[C@H]1C(=O)O [amoxicillin]

- resistance/susceptibility of isolate (MIC interpreted per CLSI) [1]: resistant
Compound: Cc1nnc(SCC2=C(C(=O)O)N3C(=O)[C@@H](NC(=O)Cn4cnnn4)[C@H]3SC2)s1 [cefazolin]

Compound: O=C(Cc1cccs1)N[C@@H]1C(=O)N2C(C(=O)O)=C(/C=C/c3ccc([N+](=O)[O-])cc3[N+](=O)[O-])CS[C@H]12 [nitrocefin]
- reaction with the isolate's β-lactamase (color change) [2]: did not react
- solubility in water [3]: insoluble in water
- Km (β-lactamase): 293 ± 13 µM
- Vmax (β-lactamase): 0.0285 ± 0.0012 mM/min

Compound: CC1(C)S[C@@H]2[C@H](NC(=O)[C@H](N)c3ccccc3)C(=O)N2[C@H]1C(=O)O [ampicillin]
- growth on ampicillin-containing agar plate [4]: did not grow

- resistance/susceptibility of isolate (MIC interpreted per CLSI) [1]: resistant
Compound: CC(=O)OCC1=C(C(=O)O)N2C(=O)[C@@H](NC(=O)Cc3cccs3)[C@H]2SC1 [cephalothin]

- resistance/susceptibility of isolate (MIC interpreted per CLSI) [1]: susceptible
Compound: CC1(C)S[C@@H]2[C@H](NC(=O)[C@H](C(=O)O)c3ccsc3)C(=O)N2[C@H]1C(=O)O [ticarcillin]
